# In publication PMC3906128 (Addiction biology, 2011):
# Structures can show the parent of a compound that is named as a salt. Where two headings read alike, the source gives them in different places.
# Tests used:
# DOP-R1 [1] = molecular target: T1, DOP-R1 (Rattus norvegicus, UniProt P33533); assay: Inhibition of TAN67-; type: biochemical
# DOP-R2 = DOP-R2 (Rattus norvegicus, UniProt P33533); assay: Deltorphin II-stimulated [35S]GTPγS binding in rat midbrain membranes; type: biochemical; conditions: Mean (± SEM) EC50 for Midbrain Opioid Stimulation, ethanol-trained rats
# Sequence of DOP-R2 (P33533 whole entry): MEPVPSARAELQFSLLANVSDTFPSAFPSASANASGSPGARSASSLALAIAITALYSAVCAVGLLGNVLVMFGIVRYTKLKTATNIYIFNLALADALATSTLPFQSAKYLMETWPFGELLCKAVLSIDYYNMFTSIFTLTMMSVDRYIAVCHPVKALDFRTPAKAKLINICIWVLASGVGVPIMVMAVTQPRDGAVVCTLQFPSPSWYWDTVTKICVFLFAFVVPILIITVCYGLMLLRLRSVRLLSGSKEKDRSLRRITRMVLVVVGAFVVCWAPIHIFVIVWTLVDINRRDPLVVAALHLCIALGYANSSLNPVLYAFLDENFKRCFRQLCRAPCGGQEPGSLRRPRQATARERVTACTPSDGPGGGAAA
# DOP-R [2] = conditions: brain membranes of high-ethanol consuming rats; ref Nielsen et al., 2008; cited from earlier work
# rats [3] = conditions: 5 mg/kg I.P., ref Nielsen et al., 2008; cited from earlier work
# corticosterone (CORT) = assay: Plasma corticosterone measurement; type: in vivo, rat; conditions: SoRI-9409 5 mg/kg I.P. prior to yohimbine 2 mg/kg I.P.; P > 0.05
# DOP-R [4] = conditions: ref Ananthan et al., 1999, cited from earlier work
# MOP-R [5] = conditions: in vitro, ref Wells et al., 2001, Xu et al.; cited from earlier work
# KOP-R = conditions: in vitro, ref Wells et al., 2001, Xu et al.; cited from earlier work
# MOP-R [6] = conditions: ref Ananthan et al., 1999, cited from earlier work
# Long-Evans rats = assay: Yohimbine stress-induced reinstatement of 10% ethanol seeking
# rats [7] = conditions: elevated plus maze test in rats; ref Nielsen et al., 2008; cited from earlier work
# DOP-R [8] = conditions: in vitro, ref Wells et al., 2001, Xu et al.; cited from earlier work
# DOP-R1 [9] = molecular target: T1, DOP-R1; assay: TAN67-stimulated [35S]GTPγS binding in rat brain membranes; type: biochemical; conditions: for EC50: ethanol-trained rats
# [10] = read-out: IC50, inhibition of TAN67-stimulated (10 μmol/L) [35S]GTPγS-binding, midbrain membranes, ethanol-trained rats given SoRI-9409-vehicle prior to yohimbine (2 mg/kg I.P.)
# T1 sequence (P33533 whole entry): as above
structure (smiles),measurement,setting,value
"O=C1/C(=C/c2ccccc2)C[C@@]2(O)[C@H]3Cc4ccc(O)c5c4[C@@]2(CCN3CC2CC2)[C@H]1O5 [BNTX, 7-benzylidenenaltrexone maleate salt hydrate]",IC50,DOP-R1 [1]; [10],0.037 ± 0.0048 µM
"CC(C)[C@H](NC(=O)[C@H](CCC(=O)O)NC(=O)[C@H](Cc1ccccc1)NC(=O)[C@@H](C)NC(=O)[C@@H](N)Cc1ccc(O)cc1)C(=O)N[C@H](C(=O)NCC(N)=O)C(C)C [Deltorphin II, [D-Ala^2]-Deltorphin II]",EC50,DOP-R2; SoRI-9409 (5 mg/kg I.P.)/Yohimbine (2 mg/kg I.P.),22 ± 4 µM
same,EC50,DOP-R2; SoRI-9409 (5 mg/kg I.P.)/Yohimbine-vehicle,> 100 µM
same,EC50,DOP-R2; SoRI-9409-vehicle/Yohimbine (2 mg/kg I.P.),27 ± 2.9 µM
same,EC50,DOP-R2; SoRI-9409-vehicle/Yohimbine-vehicle,> 100 µM
"Oc1ccc2c3c1O[C@H]1c4ncc(-c5ccc(Cl)cc5)cc4C[C@@]4(O)[C@@H](C2)N(CC2CC2)CC[C@]314 [SoRI-9409, 5′-(4-Chlorophenyl)-17-(cyclopropylmethyl)-6,7-didehydro-3,14-dihydroxy-4,5-alpha-epoxypyrido[2′,3′:6,7] morphinan]",inhibition of DOP-R-mediated [35S]GTPγS binding,DOP-R [2],potently inhibits
same,IC50,DOP-R1 [1]; [10],0.022 ± 0.0035 µM
same,effect on ethanol consumption,rats [3],selective and long-lasting reductions in ethanol consumption
same,Plasma CORT levels of SoRI-9409/yohimbine treated rats vs SoRI-9409-vehicle/yohimbine treated rats,corticosterone (CORT),not different
same,higher binding affinity at the DOP-R in comparison to naltrexone,DOP-R [4]; compared to naltrexone,approximately 20 fold
same,Ki,"DOP-R [4]; read-out: Ki, binding affinity at the DOP-R",0.0022 ± 0.0002 µM
same,agonist activity at MOP-R,MOP-R [5],no agonist activity
same,antagonist activity at the MOP-R,MOP-R [5],weak antagonist activity
same,agonist activity at KOP-R,KOP-R,no agonist activity
same,antagonist activity at the KOP-R,KOP-R,weak antagonist activity
same,reduced binding affinity for the MOP-R in comparison to naltrexone,MOP-R [6]; compared to naltrexone,approximately 20 fold
same,Ki,"MOP-R [6]; read-out: Ki, binding affinity for the MOP-R",0.051 ± 0.008 µM
same,Inactive lever presses,"Long-Evans rats; SoRI-9409 1 mg/kg, Vehicle group (yohimbine-vehicle)",0.8 ± 0.4
same,Inactive lever presses,"Long-Evans rats; SoRI-9409 1 mg/kg, Yohimbine group (2 mg/kg I.P.)",1.7 ± 0.5
same,Inactive lever presses,"Long-Evans rats; SoRI-9409 2.5 mg/kg, Vehicle group (yohimbine-vehicle)",0.3 ± 0.3
same,Inactive lever presses,"Long-Evans rats; SoRI-9409 2.5 mg/kg, Yohimbine group (2 mg/kg I.P.)",1.0 ± 0.4
same,Inactive lever presses,"Long-Evans rats; SoRI-9409 5 mg/kg, Vehicle group (yohimbine-vehicle)",0.2 ± 0.1
same,Inactive lever presses,"Long-Evans rats; SoRI-9409 5 mg/kg, Yohimbine group (2 mg/kg I.P.)",0.6 ± 0.4
same,effect on responding in rats which did not receive yohimbine,"Long-Evans rats; SoRI-9409 1-5 mg/kg I.P., yohimbine-vehicle only, P > 0.05",did not affect responding
same,anxiogenic or anxiolytic effects,rats [7],does not produce anxiogenic or anxiolytic effects
same,agonist activity at DOP-R,DOP-R [8],no agonist activity
same,antagonist activity at the DOP-R,DOP-R [8],potent antagonist activity
"Br.Br.CN1CC[C@]2(c3cccc(O)c3)Cc3nc4ccccc4cc3C[C@H]2C1 [TAN67, SB 205607 dihydrobromide]",higher TAN67-mediated DOP-R1 activity in yohimbine-treated rats compared to vehicle-treated rats,"DOP-R1 [9]; midbrain membranes, from Table 2 EC50 values",> 700 fold
same,EC50,"DOP-R1 [9]; read-out: Mean (± SEM) EC50 for Midbrain Opioid Stimulation, midbrain membranes, SoRI-9409 (5 mg/kg I.P.)/Yohimbine (2 mg/kg I.P.)",5.2 ± 0.3 µM
same,EC50,"DOP-R1 [9]; read-out: Mean (± SEM) EC50 for Midbrain Opioid Stimulation, midbrain membranes, SoRI-9409 (5 mg/kg I.P.)/Yohimbine-vehicle",> 100 µM
same,EC50,"DOP-R1 [9]; read-out: Mean (± SEM) EC50 for Midbrain Opioid Stimulation, midbrain membranes, SoRI-9409-vehicle/Yohimbine (2 mg/kg I.P.)",0.14 ± 0.04 µM
same,EC50,"DOP-R1 [9]; read-out: Mean (± SEM) EC50 for Midbrain Opioid Stimulation, midbrain membranes, SoRI-9409-vehicle/Yohimbine-vehicle",> 100 µM
same,EC50,"DOP-R1 [9]; read-out: Mean (± SEM) EC50 for TAN67 Stimulation, Striatum, striatal membranes, SoRI-9409 (5 mg/kg I.P.)/Yohimbine (2 mg/kg I.P.)",> 100 µM
same,EC50,"DOP-R1 [9]; read-out: Mean (± SEM) EC50 for TAN67 Stimulation, Striatum, striatal membranes, SoRI-9409 (5 mg/kg I.P.)/Yohimbine-vehicle",> 100 µM
same,EC50,"DOP-R1 [9]; read-out: Mean (± SEM) EC50 for TAN67 Stimulation, Striatum, striatal membranes, SoRI-9409-vehicle/Yohimbine (2 mg/kg I.P.)",> 100 µM
same,EC50,"DOP-R1 [9]; read-out: Mean (± SEM) EC50 for TAN67 Stimulation, Striatum, striatal membranes, SoRI-9409-vehicle/Yohimbine-vehicle",> 100 µM
"COC(=O)[C@@H]1[C@H]2C[C@H]3c4[nH]c5ccccc5c4CCN3C[C@@H]2CC[C@@H]1O [Yohimbine, reference compound]",active lever presses (30 min),"Long-Evans rats; SoRI-9409-vehicle prior to yohimbine 2 mg/kg I.P., ethanol-extinguished rats, vehicle/vehicle 10.9 ± 1.8",48.0 ± 7.0 presses
same,Inactive lever presses,"Long-Evans rats; SoRI-9409-vehicle, Yohimbine group (2 mg/kg I.P.)",2.1 ± 0.7
"Oc1ccc2c3c1O[C@H]1c4[nH]c5ccccc5c4C[C@@]4(O)[C@@H](C2)N(CC2CC2)CC[C@]314 [naltrindole, naltrindole hydrochloride]",IC50,DOP-R1 [1],0.046 ± 0.0038 µM
